Paper PMC6259646, “Role of Intestinal Hydrolase in the Absorption of Prenylated Flavonoids Present in Yinyanghuo” (Molecules, 2011)

Key:
[1] = system: rat intestine; assay: four-site single-pass perfused rat intestinal model: effective permeability and metabolite formation; format: in vivo; conditions: for metabolites detected in the perfusate: HPLC; for identity of intestinal metabolite: rat intestinal perfusate, LC/MS/MS, loss of saccharide group at C7
Source text: Male Sprague-Dawley rats weighing between 250 and 300 g were obtained from the SLEK Lab Animal Center of Shanghai (Shanghai, China). The rats were fed with water and a standard diet. The rats were fasted overnight before the day of the experiment.
The surgical procedures were approved by the Animal Ethics Committee of Jiangsu Provincial Academy of Chinese Medicine. Anesthesia was induced by an i.m. injection of urethane (0.5 g/mL). After the rat was anesthetized, it was put over a heating blanket and under a heating lamp to keep its normal body temperature. We then cannulated four segments of the intestine, each with two cannulae. After each cannula was inserted, it was secured with a sterilized black suture before the next cannula was inserted and secured. First, the duodenum was located as the intestinal segment immediately adjacent to the stomach, and two cannulae at 10 cm apart were inserted into two ends of the duodenum and secured with suture. Next, the jejunum was located below the duodenum, and the first cannula was inserted at 4 cm below the duodenal outlet cannula, whereas the second cannula was inserted at 10 cm below the first jejunal cannula. Then, the terminal ileum was located by identifying the ileocecal junction of the rat intestine. The outlet cannula was inserted into the ileum at 2 cm above the junction, and the inlet cannula was inserted 10 cm above the outlet cannula. Lastly, the colon inlet cannula was inserted into the colon at 2 cm below the junction, and the outlet cannula was inserted through the anus. After cannulation, the small intestinal segments were placed carefully into the abdominal cavity, avoiding crimping or kinking of the segments. The incision was then covered by a normal saline-wetted paper towel. A piece of plastic wrap was put on the towel to keep the intestinal segments moist. Additionally, caution was also exercised to keep the inlet and outlet cannulate at the same height to avoid gravitational flow. To keep the temperature of the perfusate constant, the inlet cannulate was kept warm by a 37°C circulating water bath.
This is a single-pass perfusion method. Four segments of the intestine (duodenum, upper jejunum, terminal ileum, and colon) were perfused simultaneously with a perfusate containing the compound of interest using an infusion pump (Harvard Apparatus, Cambridge, MA, USA) at a flow rate of 0.2 mL/min. After a 30-min washout period, which is usually sufficient to achieve the steady-state absorption, four samples were collected from the outlet cannulae every 30 min afterward. After perfusion, the length of the intestine was measured as described previously The outlet concentrations of the test compounds in the luminal perfusate were determined by HPLC or LC/MS/MS.
The samples were separated on a Zorbax SB-C18 column (250 mm × 4.6 mm, 5 μm, Agilent). The mobile phase consisted of acetonitrile (A) and water containing 0.1% acetic acid (B). […] For MS analysis, the electro spray ionization (ESI) source was operated in the positive ion mode.
In the perfused rat intestinal model, Peff^* (effective permeability) is a representation of the intestinal membrane permeability. Peff^* of the compounds are calculated using the following equations: Peff^∗=1−Cm/Co/4Gz where Co and Cm are inlet and outlet concentrations, respectively; Gz, or Graetz number ( Gz=πDL/2Q ), is a scaling factor that incorporates flow rate (Q), intestinal length (L), and diffusion coefficients (D) to make the permeability dimensionless. Cm was adjusted for water flux, data points were discarded if the water flux exceeded 0.5%/cm of intestine.

[2] = system: lactase phlorizin hydrolase; assay: co-perfusion with LPH inhibitor gluconolactone in perfused rat intestinal model: inhibition of hydrolysis; format: in vivo; conditions: 10 μM flavonoid co-perfused with gluconolactone (40μM)
Method: This is a single-pass perfusion method. […] After a 30-min washout period, which is usually sufficient to achieve the steady-state absorption, four samples were collected from the outlet cannulae every 30 min afterward. After perfusion, the length of the intestine was measured as described previously The outlet concentrations of the test compounds in the luminal perfusate were determined by HPLC or LC/MS/MS. […] The total gluconolactone concentration was 40μM. After perfusion, perfusates were collected and determined by HPLC. […] The accuracy and precision were greater than 98%.

Row | Compound | metabolites detected in the perfusate [1] | hydrolysis inhibition rate, colon [2] [%] | hydrolysis inhibition rate, duodenum [2] [%] | hydrolysis inhibition rate, ileum [2] [%] | hydrolysis inhibition rate, jejunum [2] [%] | identity of intestinal metabolite [1]
1 | COc1ccc(-c2oc3c(CC=C(C)C)c(O)cc(O)c3c(=O)c2O[C@@H]2O[C@@H](C)[C@H](O)[C@@H](O)[C@H]2O)cc1 [baohuoside I] | no metabolites were detected |  |  |  |  | 
2 | COc1ccc(-c2oc3c(CC=C(C)C)c(OC4OC(CO)C(O)C(O)C4O)cc(O)c3c(=O)c2OC2OC(C)C(O)C(O)C2OC2OC(CO)C(O)C(O)C2O)cc1 (stereo not shown) [epimedin A] | one metabolite | 14 | 55 | 21 | 26 | sagittatoside A
3 | COc1ccc(-c2oc3c(CC=C(C)C)c(OC4OC(CO)C(O)C(O)C4O)cc(O)c3c(=O)c2OC2OC(C)C(O)C(O)C2OC2OCC(O)C(O)C2O)cc1 (stereo not shown) [epimedin B] | one metabolite | 22 | 42 | 74 | 40 | sagittatoside B
4 | COc1ccc(-c2oc3c(CC=C(C)C)c(OC4OC(CO)C(O)C(O)C4O)cc(O)c3c(=O)c2OC2OC(C)C(O)C(O)C2OC2OC(C)C(O)C(O)C2O)cc1 (stereo not shown) [epimedin C] | one metabolite | 35 | 42 | 52 | 40 | 2″-O-rhamnosylicariside II
5 | COc1ccc(-c2oc3c(CC=C(C)C)c(O[C@@H]4O[C@H](CO)[C@@H](O)[C@H](O)[C@H]4O)cc(O)c3c(=O)c2O[C@@H]2O[C@@H](C)[C@H](O)[C@@H](O)[C@H]2O)cc1 [icariin] | two metabolites | 46 | 62 | 40 | 50 | baohuoside I
